Experimental data as given in patent publication US20200278355A1, “CONJUGATED PROTEINS AND USES THEREOF” (THE SCRIPPS RESEARCH INSTITUTE, priority 2017, published 2020).

Target: T1, HA-NR0B1-C274V binding to FLAG-SNW1 (Homo sapiens, UniProt P51843, C274V)
T1 construct: expressed in transfected cells; host or cells: HEK293T (pRK5-based plasmids)
Experiment: Modified in vitro binding assay: HA-NR0B1-C274V from compound-treated HEK293T cells binding to FLAG-SNW1
Type: cell-based
Conditions: HEK293T cells expressing HA-NR0B1-C274V treated with compound, lysate binding to FLAG-SNW1
Method: FIG. 5A-FIG. 5G show covalent ligand targeting C274 disrupts NR0B1 protein complexes. […] Percentage of NR0B1 bound to SNW1 was normalized to vehicle (DMSO). A hit compound BPK-26 is marked in red. […] HEK293T cells expressing the indicated proteins were treated with BPK-29 or vehicle (3 h) prior to treatment with BPK-29yne (30 min). Immunoprecipiated proteins were analyzed by in-gel fluorescence-scanning and immunoblotting. […] HEK293T cells expressing HA-NR0B1-WT or HA-NR0B1-C274V proteins were treated with DMSO or BPK-29, after which lysates were generated and evaluated for binding to FLAG-SNW1, as shown in (B).
FIG. 11A-FIG. 11F illustrate a covalent ligand targeting Cys274 disrupts NR0B1 protein complexes. […] See also FIG. 5C. […] Top: Structures of screening hit BPK-28 and synthesized derivatives. […] FLAG-immunoprecipitates were prepared from each lysate and subjected to proteolytic digestion, whereupon tryptic peptides harboring C274 were analyzed by LC-MS/MS. […] Immunoprecipitates were analyzed by in-gel fluorescence-scanning to assess BPK-29yne labeling or by immunoblot for FLAG-NR0B1. […] In a modified in vitro binding assay shown in FIG. 5B, HEK293T cells expressing HA-NR0B1-WT or an HA-NR0B1-C274V mutant were treated with DMSO or BPK-26 (20 μM, 3 h), after which lysates were and interaction with FLAG-SNW1 assessed. […]

T1 sequence (P51843 whole entry C274V): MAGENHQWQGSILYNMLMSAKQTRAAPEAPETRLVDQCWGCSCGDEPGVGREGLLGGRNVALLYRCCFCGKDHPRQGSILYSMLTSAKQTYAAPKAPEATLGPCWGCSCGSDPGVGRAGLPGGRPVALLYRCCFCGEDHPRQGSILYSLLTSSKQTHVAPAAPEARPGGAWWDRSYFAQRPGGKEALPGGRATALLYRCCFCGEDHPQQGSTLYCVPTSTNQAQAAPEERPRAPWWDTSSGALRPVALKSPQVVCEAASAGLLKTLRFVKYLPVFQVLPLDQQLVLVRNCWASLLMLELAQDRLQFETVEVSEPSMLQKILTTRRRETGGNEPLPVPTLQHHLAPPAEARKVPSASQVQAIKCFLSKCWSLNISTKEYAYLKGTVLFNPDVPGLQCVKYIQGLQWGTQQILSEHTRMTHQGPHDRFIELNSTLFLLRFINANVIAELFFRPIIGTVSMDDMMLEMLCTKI

Compound | sensitivity of the C274V-NR0B1 interaction with SNW1 to ligand
O=C(CCl)N(Cc1cccc(Cl)c1F)c1ccc(Cl)nc1 [BPK-26, 2-chloro-N-(3-chloro-2-fluorobenzyl)-N-(6-chloropyridin-3-yl)acetamide] | not sensitive
O=C(c1ccc(N2CCOCC2)cc1)N1CCCC(N(Cc2ccccc2)C(=O)CCl)CC1 (centres unmarked) [BPK-29, N-benzyl-2-chloro-N-(1-(4-morpholinobenzoyl)azepan-4-yl)acetamide] | not sensitive
